Patent US6004967A, “Psoriasis treatment with quinazoline compounds” (priority 1997, dated 1999)

What was measured:
[1] = tested on: NIH 3T3 C7 cells engineered to express EGF-R (3T3-EGFR); experiment: 3T3 cell growth assay, EGF-R C7 cells (3T3-EGFR); assay type: cell-based; conditions: Mus musculus, NIH3T3, 96 h, read-out: 3T3-EGFR IC50
Method: The efficacy of the above identified compounds in inhibiting or reducing EGF-R stimulated proliferation is measured by the 3T3 cell growth assay. The 3T3 growth assay was carried out as follows:
EGF-RC7 (NIH 3T3 C7 cells engineered to express EGF-R) and NIH 3T3C7 cells (as the control) were used for this assay. NIH3T3C7 cells were seeded at 2500 cells/well, […] in 10% CS+2 mM Glutamine/DMEM, in a 96 well plate; EGF-RC7 cells were seeded at 6000 cells/well, 100 μl/well in 2% FBS+2 mM Glutamine/DMEM, in a 96 well plate. Cells were incubated at 37° C., 5% CO2 overnight to allow for cell attachment to the plate.
A quinazoline compound was added to the cells at day 2. The compound was prepared in the appropriate growth medium (10% CS+2 mM glutamine in DMEM for NIH3T3C7 cells; 2% FBS+2 mM Glutamine in DMEM for EGF-RC7 cells) in a 96 well plate, and serially diluted. A total of 100 μl/well medium of the diluted compounds was added into the cells. The total volume of each well was 200 μl.
After the cells were treated with the compound for 4 days, the cells were washed with PBS and fixed with 200 μl/well ice-cold […] for one hour at 0-5° C.
Remove TCA and rinse wells 5 times with deionized water. Dry plates upside down with paper towels. Stain cells with 0.4% SRB at 100 μl/well for 10 minutes.
Pour off SRB and rinse plate 5 times with 1% acetic acid. Dry plate completely.
Solubilize the dye with 10 mM Tris-base at 100 μl/well for 10 minutes on a shaker.
Read the plate at dual wavelengths at 570 nm and 630 nm on Dynatech Elisa plate reader.

[2] = Plasma concentration after single IP dose; assay type: in vivo; conditions: mouse
Method: **Single dose (50 mg/kg), IP, in BALB/c, nu/nu, female mice.

[3] = in vitro; assay type: in vitro ADME, human
Method: . […] . Thus, biologically relevant concentrations of the drug penetrated the skin and reached the target tissue (epidermis) within 24 hours of application.
. The area of the cadaver skin used was 1.77 cm^2. The calculated volume using this assumption is 17.7 μL. Molar concentration was calculated from the microgram recovery in the epidermis.

[4] = target: T1, IGF-1R (Homo sapiens, UniProt P08069); experiment: IGF-1-stimulated receptor phosphorylation ELISA, 3T3-IGF1R; assay type: cell-based
T1 construct: expressed in transfected cells; host or cells: NIH3T3 mouse fibroblasts, retroviral vector (3T3-IGF1R)
T1 sequence (P08069 741-1367 limits assumed, species assumed): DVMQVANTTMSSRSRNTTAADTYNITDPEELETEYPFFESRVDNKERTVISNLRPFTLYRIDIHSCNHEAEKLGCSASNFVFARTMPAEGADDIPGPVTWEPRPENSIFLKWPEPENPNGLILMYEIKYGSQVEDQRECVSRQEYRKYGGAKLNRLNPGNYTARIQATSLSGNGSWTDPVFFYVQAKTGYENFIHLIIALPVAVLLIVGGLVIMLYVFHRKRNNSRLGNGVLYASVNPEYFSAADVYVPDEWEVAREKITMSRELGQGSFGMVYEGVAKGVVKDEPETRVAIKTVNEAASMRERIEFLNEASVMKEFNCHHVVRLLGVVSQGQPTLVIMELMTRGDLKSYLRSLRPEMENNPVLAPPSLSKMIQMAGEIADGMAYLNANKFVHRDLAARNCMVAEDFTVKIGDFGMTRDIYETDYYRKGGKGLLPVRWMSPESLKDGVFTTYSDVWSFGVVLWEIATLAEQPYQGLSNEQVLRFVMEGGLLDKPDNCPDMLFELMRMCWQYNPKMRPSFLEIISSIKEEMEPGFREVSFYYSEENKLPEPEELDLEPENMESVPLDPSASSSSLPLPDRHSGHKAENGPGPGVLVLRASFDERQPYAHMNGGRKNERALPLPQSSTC
T1 sequence (P08069 31-736 partner limits assumed, species assumed): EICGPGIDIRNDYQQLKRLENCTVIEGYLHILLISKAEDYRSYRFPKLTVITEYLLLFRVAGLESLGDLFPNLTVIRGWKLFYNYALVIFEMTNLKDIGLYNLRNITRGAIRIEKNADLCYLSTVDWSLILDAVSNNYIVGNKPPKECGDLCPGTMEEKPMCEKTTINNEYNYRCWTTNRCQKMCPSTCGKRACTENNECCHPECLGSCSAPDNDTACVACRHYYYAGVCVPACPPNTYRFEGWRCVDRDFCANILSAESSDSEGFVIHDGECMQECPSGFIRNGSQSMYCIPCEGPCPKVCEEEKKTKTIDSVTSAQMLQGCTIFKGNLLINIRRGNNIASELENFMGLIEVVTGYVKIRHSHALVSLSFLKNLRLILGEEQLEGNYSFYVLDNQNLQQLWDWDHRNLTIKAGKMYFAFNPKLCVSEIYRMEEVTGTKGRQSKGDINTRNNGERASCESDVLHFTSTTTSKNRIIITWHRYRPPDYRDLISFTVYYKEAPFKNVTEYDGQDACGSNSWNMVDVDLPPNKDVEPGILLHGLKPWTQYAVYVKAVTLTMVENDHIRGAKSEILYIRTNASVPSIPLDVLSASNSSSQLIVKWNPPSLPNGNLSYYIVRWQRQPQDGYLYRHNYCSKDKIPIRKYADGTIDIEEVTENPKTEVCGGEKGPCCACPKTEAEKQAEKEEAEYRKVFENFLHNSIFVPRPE
From the text: (§1) Cells and Cell Culture. All tumor cell lines were obtained from the American Type Culture Collection (Rockville, Md.), unless otherwise specified. NIH3T3 mouse fibroblasts overexpressing the EGF receptor, IGF-1 receptor, insulin receptor, PDGF-b receptor, or a chimera of the EGF receptor extracellular domain fused to the Her-2 cytoplasmic domain were engineered using retroviral vectors. These cells will be referred to as 3T3-EGFR, 3T3-IGF1R, 3T3-IR, 3T3-PDGF-bR, and 3T3-EGFR/Her-2, respectively. All cell culture media and supplements were purchased from Gibco Life Technologies (Grand Island, N.Y.) unless otherwise specified. […] Cell lines were maintained under standard conditions in culture media recommended by the ATCC, unless otherwise specified. 3T3-EGFR, 3T3-PDGF-bR, and 3T3-EGFR/Her-2 cells were maintained in DMEM containing 10% calf serum (CS) and 2 mM GLN. 3T3-IGF1R and 3T3-IR cells were maintained in DMEM containing 10% FBS and 2 mM GLN. Keratinocytes were obtained from small biopsy specimens of split-thicknessskin from patients with psoriasis and from healthy control donors.
(§2) In vitro functional studies. […] Cell lines examined in receptor phosphorylation ELISA were 3T3-EGFR, 3T3-EGFR/Her-2, 3T3-PDGF-bR, 3T3-IGF1R, and 3T3-IR. For analysis of DNA replication (measured as incorporation of BrdU) and cell cycle progression, 3T3-EGFR and 3T3-PDGF-bR cell lines were used. Cell growth studies were carried out on A431 (EGF-R+), BT474 (Her-2+), and C6 (PDGF-bR+) cell lines.
Receptor phosphorylation was measured by ELISA. EGF-R/Her-2 denotes a chimeric receptor consisting of the extracellular (ligand-binding) domain of EGFR, and the transmembrane and cytoplasmic domains of Her-2.

[5] = target: T2, IR (Homo sapiens, UniProt P06213); experiment: Insulin-stimulated receptor phosphorylation ELISA, 3T3-IR; assay type: cell-based
T2 construct: expressed in transfected cells; host or cells: NIH3T3 mouse fibroblasts, retroviral vector (3T3-IR)
T2 sequence (P06213 763-1382 limits assumed): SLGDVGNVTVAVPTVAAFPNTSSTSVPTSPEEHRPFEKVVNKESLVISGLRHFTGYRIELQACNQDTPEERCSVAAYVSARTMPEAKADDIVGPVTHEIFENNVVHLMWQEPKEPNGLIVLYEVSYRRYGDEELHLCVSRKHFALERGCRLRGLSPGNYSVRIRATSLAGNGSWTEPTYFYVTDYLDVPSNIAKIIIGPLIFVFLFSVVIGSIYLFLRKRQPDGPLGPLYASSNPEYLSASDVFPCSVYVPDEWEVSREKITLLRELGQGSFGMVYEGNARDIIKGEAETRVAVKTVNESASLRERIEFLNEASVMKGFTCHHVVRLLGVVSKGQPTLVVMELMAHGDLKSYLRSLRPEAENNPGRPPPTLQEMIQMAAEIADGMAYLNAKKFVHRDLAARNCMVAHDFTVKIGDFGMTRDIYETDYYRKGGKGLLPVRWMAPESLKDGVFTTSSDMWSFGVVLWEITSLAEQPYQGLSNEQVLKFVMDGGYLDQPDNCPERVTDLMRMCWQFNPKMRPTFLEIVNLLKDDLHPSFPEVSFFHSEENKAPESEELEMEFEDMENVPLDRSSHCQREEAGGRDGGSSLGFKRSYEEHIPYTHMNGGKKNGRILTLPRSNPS
T2 sequence (P06213 28-758 partner limits assumed): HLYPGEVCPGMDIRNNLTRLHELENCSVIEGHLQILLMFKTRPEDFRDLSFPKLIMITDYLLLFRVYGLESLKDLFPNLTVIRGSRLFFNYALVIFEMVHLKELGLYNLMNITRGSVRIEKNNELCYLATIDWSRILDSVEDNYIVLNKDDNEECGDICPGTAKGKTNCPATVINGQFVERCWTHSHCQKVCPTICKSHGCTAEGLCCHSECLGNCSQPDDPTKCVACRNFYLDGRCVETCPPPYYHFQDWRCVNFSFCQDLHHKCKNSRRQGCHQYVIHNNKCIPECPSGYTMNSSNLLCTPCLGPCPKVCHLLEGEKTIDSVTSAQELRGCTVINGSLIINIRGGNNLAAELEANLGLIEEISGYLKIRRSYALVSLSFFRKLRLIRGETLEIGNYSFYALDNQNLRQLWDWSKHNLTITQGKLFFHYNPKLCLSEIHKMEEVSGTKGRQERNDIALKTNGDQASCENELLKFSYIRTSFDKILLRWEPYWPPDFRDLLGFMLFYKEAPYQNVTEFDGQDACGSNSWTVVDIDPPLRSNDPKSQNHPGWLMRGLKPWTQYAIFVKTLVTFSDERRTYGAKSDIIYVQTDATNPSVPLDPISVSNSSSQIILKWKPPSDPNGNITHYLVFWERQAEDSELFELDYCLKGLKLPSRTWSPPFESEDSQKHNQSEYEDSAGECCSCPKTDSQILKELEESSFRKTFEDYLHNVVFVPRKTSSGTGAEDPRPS
From the text: as §1
In vitro functional studies. […] For analysis of DNA replication (measured as incorporation of BrdU) and cell cycle progression, 3T3-EGFR and 3T3-PDGF-bR cell lines were used. […]
Receptor phosphorylation was measured by ELISA. […]

[6] = tested on: 3T3-EGFR cells; experiment: EGF-driven DNA replication (BrdU incorporation); assay type: cell-based; conditions: Mus musculus, 20 hours
Method: as §2

[7] = tested on: A431; experiment: Cell growth (SRB), A431; assay type: cell-based
Method: as §2
(§3) After 4 days, cell density was measured by SRB staining. IC50 values were determined by regression analysis. For these experiments, cell lines whose growth is dependent on naturally-expressed RTK were examined.

[8] = tested on: C6; experiment: Cell growth (SRB), C6; assay type: cell-based
Method: In vitro functional studies.
as §3

[9] = Excipient screening (visual solubility after 24 hrs)
[10] = Plasma levels of A1 after topical application in nu/nu mice

SMILES: COc1cc2ncnc(Nc3cccc(Br)c3)c2cc1OC [A1, 4-(3-Bromophenylamino)-6,7-dimethoxyquinazoline]
- IC50 [1]: 75 nM
- plasma half-life (in words) ([2]; in vivo): short plasma half-life
- concentration at 5 min ([2]; plasma, single dose 50 mg/kg IP, BALB/c nu/nu female mice, 5 min): 17900 ± 4300 ng/mL
- concentration at […] ([2]; plasma, single dose 50 mg/kg IP, BALB/c nu/nu female mice, 15 min): 6300 ± 3700 ng/mL
- concentration at 1 h ([2]; plasma, single dose 50 mg/kg IP, BALB/c nu/nu female mice, 60 min): 2000 ± 900 ng/mL
- skin penetration (in words) [3]: penetrated human cadaver skin, reaching biologically effective concentrations in the epidermis
- concentration at 24 h ([3]; human, topical or ocular, concentration in the epidermis after 24 hours): 141 to 355 µM
- activity against insulin-like growth factor-1 receptor (in words) [4]: little or no activity
- inhibition of receptor phosphorylation, IGF-1R ([4]; concentrations up to 100 μM): not inhibited
- IC50 ([4]; ligand IGF-1, 2 hr pretreatment): > 100000 nM
- inhibition of receptor phosphorylation, IR ([5]; concentrations up to 100 μM): not inhibited
- IC50 ([5]; ligand Insulin, 2 hr pretreatment): > 100000 nM
- IC50 [6]: 30 nM
- growth of cell lines driven by the EGF-R/Her family of RTK (in words) [7]: preferentially inhibited
- IC50 ([7]; Homo sapiens, A-431, 96 h): 1600 nM
- inhibition of PDGF-bR-dependent cell growth (in words) [8]: did not inhibit
- IC50 ([8]; Rattus norvegicus, C6, 96 h, RTK PDGF-bR, 4 day incubation): > 100000 nM
- Solubility After 24 Hrs. ([9]; 1.0 N HCl): Insoluble/Yellow
- Solubility After 24 Hrs. ([9]; Benzyl Alcohol): Soluble
- Solubility After 24 Hrs. ([9]; Conc. NaOH): Insoluble
- Solubility After 24 Hrs. ([9]; Distilled H2O): Insoluble
- Solubility After 24 Hrs. ([9]; EtOH/Poly-80 50:50, [Drug] 10 mg/mL): Slightly Soluble
- Solubility After 24 Hrs. ([9]; Ethanol): Partially Soluble
- Solubility After 24 Hrs. ([9]; Isopropyl Myristate): Insoluble/Cloudy
- Solubility After 24 Hrs. ([9]; Oleic Acid): Insoluble/Yellow/Cloudy
- Solubility After 24 Hrs. ([9]; PEG-300): Soluble
- Solubility After 24 Hrs. ([9]; Polysorbate-80, [Drug] 10 mg/mL): Slightly Soluble
- Solubility After 24 Hrs. ([9]; Propylene Carbonate): Soluble/80C/10 min.
- Solubility After 24 Hrs. ([9]; Propylene Glycol): Slightly Soluble/Clear/
- Solubility After 24 Hrs. ([9]; Triacetin): Partially Soluble
- concentration at 0.5 h ([10]; mouse, plasma, topical or ocular): < 2000 ng/mL
- discomfort or increased grooming behavior ([10]; topical 2% ointment, nu/nu mice): no discomfort or increased grooming behavior
